The source of these data is patent US20250351820A1, “SUPRAMOLECULAR POROUS ORGANIC FRAMEWORKS FOR STORAGE AND DELIVERY OF VOLATILE GUESTS” (KANSAS STATE UNIVERSITY RESEARCH FOUNDATION, priority 2022, published 2025).

SMILES strings stand for the structures.

The format of the data set is physicochemical. Here is the method: In one approach, the HOF encapsulated guest was prepared by dissolving trimesic acid and guest in methanol a 1:8 molar ratio. The mixture was stirred at room temperature for up to 48 hours. The solution was then left undisturbed allowing for slow evaporation to take place until crystals were obtained. For particularly oily guest molecules, an additional solvent was required to dissolve trimesic acid. Successful guest uptake was confirmed by single crystal X-ray diffraction (SCXRD). Thermogravimetric analysis was used to monitor the weight loss as a function of temperature, and ^1H NMR was used to confirm the presence of both host and guest in the sample.
In order to determine to what extent a particular guest is included within the host structure, we carried out thermal gravimetric analysis (TGA) on the resulting samples. A typical TGA measurement will record the weight-loss as a function of temperature and this will allow us to estimate the relative amount of solvent/guest/host present in a particular sample. […] The host itself begins to thermally degrade at around 250° C.

For `O=C(O)c1cc(C(=O)O)cc(C(=O)O)c1` [trimesic acid], the “temperature at which the host begins to thermally degrade” value is “around 250 °C”.
